Results from patent US8003660B2, “Modulators of muscarinic receptors” (Vertex Pharmaceuticals Incorporated, priority 2006, dated 2011).
pEC50: −log10 of the molar value. Like-named read-outs stand apart in the source and are kept apart here.

Columns and labels:
Format in all cases: cell-based
M1 muscarinic receptor = molecular target: T1, M1 muscarinic receptor (Homo sapiens, UniProt P11229); assay: Functional mobilization of intracellular calcium (FLIPR) in CHO cells expressing M1; details: for pEC50: CHO cells expressing M1, FLIPR calcium; for Emax: CHO; for M1 Activity: CHO cells expressing M1, FLIPR calcium assay
T1 construct: expressed in transfected cells; host or cells: CHO (M1-CHO)
T1 sequence (P11229 1-460): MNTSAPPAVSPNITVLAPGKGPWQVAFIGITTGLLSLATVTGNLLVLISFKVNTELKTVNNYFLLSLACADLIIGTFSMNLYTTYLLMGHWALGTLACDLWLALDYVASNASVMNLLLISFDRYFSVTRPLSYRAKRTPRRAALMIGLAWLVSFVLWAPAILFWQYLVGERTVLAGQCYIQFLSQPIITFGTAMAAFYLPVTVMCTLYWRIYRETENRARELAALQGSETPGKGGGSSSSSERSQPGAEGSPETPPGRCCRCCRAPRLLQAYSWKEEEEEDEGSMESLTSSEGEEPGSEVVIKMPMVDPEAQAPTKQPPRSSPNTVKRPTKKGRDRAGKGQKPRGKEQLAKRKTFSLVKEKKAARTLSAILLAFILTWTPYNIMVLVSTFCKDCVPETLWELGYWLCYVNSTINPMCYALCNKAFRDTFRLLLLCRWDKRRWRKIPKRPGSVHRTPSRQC
Method: (§1) Functional Mobilization of Intracellular Calcium to Determine Muscarinic Receptor Activity:
(§2) CHO cells expressing muscarinic receptors (M1 to M5) are grown as monolayers in tissue culture flasks at 37° C. in a humidified atmosphere containing 5% CO2 and passaged every 3-5 days. The growth media is Dulbecco's modified eagles medium (DMEM, Gibco Cat# 12430-054), containing 25 mM Hepes and supplemented with Fetal Bovine Serum (Hyclone, cat# SH30071.03), 0.1 mM of MEM non-essential amino acids (GIBCO, Cat# 11140-050), 1 mM MEM Sodium Pyruvate (GIBCO Cat# 11360-070) and 100 units/ml of Penicillin G and 100 μg/ml of Streptomycin (GIBCO Cat# 15140-122). The recombinant muscarinic receptor cell lines are grown under antibiotic pressure with media containing 25 μg/ml zeocin and 500 μg/ml G418 (M1-CHO), 4 μg/ml puromycin, 50 μg/ml zeocin and 2.5 μg/ml blasticidin (M2 and M4-CHO) or 50 μg/ml zeocin and 4 μg/ml puromycin (M3 and M5-CHO).
(§3) Cells are harvested at 80-90% confluence using Versene (GIBCO Cat# 15040-066), collected by centrifugation and seeded 18-24 hrs prior to running the calcium assay at a density of 5,000-10,000 cells/well in […], clear-bottomed 384-well plates (BD Biocoat, poly-D-lysine, Cat#356663). The day of the experiment, the cells are washed with a plate washer (Bioteck Instruments, ELX 405) using bath 1 buffer (140 mM NaCl, 4,5 mM KCl, 2 mM CaCl2, 1 mM MgCl2, 10 mM Hepes-Na, 10 mM Glucose, pH 7.4, with NaOH) containing 1 mM Probenecid. Next, the calcium dye Fluo-3 (25 μl/well of Fluo-3 AM at 4 μM, Molecular Probes F-1241, in Bath 1 buffer containing 1 mM Probenecid) is added to the 25 μl of Bath 1 remaining in each well after the plate wash and the dye is loaded at 37° C. in the tissue culture incubator for 60-90 min. The fluorescent dye is removed using the plate washer with Bath 1 containing 1 mM Probenecid, leaving 25 μl/well of this solution after the wash. Alternatively, cells can be loaded with the calcium indicator from Molecular Devices (Calcium 3 Assay Reagents, Cat #R7181) adding 5 μl of a 5× solution dye in Bath 1 containing 1 mM Probenecid (10 ml per dye flask cat#R7182 to generate a solution […]) to 20 μl of the same buffer. After loading for 60 min, the experiment can be run without having to remove the dye.
(§4) Compounds are prepared at a 2× fold concentration in a 96-well plate (round bottom, Costar Corning cat#3656), by reconstituting the pre-spotted compounds in bath 1 containing 1 mM probenecid. The final concentration DMSO is 0.5%, and the amount of DMSO is normalized across the assay plate. To determine an agonist action of the compounds on muscarinic receptors, the reconstituted compounds are added (25 μl compound/well) to the cell assay plate (containing 25 μl/well) using the multi-channel robotic system of the FLIPR 3 Instrument (Molecular Devices, Sunnyvale, Calif.). To determine a functional inhibitory action of the compounds on muscarinic receptors, the reconstituted compounds are added (25 μl compound/well) to the assay plate and pre-incubated for 15 min prior to adding 25 μl of Carbachol at 3× the EC80 for each muscarinic subtype. Alternatively, the compounds can be co-applied simultaneously with the agonist. In both assay modes, the fluorescence is recorded for 60 sec (excitation wavelength is […] and emission wavelength 540 nm) using the FLIPR 3 instrument.
(§5) The potency, efficacy and selectivity of the muscarinic compounds were evaluated by screening the compound activity across the whole family (M1 to M5 cells). Compounds were also screened for activity on other proteins such as other GPCRs and ion channels to determine selectivity on M4 receptors.

M3 muscarinic receptor = molecular target: T2, M3 muscarinic receptor (Homo sapiens, UniProt P20309); assay: Functional mobilization of intracellular calcium (FLIPR) in CHO cells expressing M3; details: for pEC50: CHO cells expressing M3, FLIPR calcium; for Emax: CHO
T2 construct: expressed in transfected cells; host or cells: CHO (M3-CHO)
Method: as §1, §2, §3, §4, §5

M2 muscarinic receptor = molecular target: T3, M2 muscarinic receptor (Homo sapiens, UniProt P08172); assay: Functional mobilization of intracellular calcium (FLIPR) in CHO cells expressing M2; details: for pEC50: CHO cells expressing M2, FLIPR calcium; for Emax: CHO; for M2 Activity: CHO cells expressing M2, FLIPR calcium assay
T3 construct: expressed in transfected cells; host or cells: CHO (M2-CHO)
T3 sequence (P08172 1-466): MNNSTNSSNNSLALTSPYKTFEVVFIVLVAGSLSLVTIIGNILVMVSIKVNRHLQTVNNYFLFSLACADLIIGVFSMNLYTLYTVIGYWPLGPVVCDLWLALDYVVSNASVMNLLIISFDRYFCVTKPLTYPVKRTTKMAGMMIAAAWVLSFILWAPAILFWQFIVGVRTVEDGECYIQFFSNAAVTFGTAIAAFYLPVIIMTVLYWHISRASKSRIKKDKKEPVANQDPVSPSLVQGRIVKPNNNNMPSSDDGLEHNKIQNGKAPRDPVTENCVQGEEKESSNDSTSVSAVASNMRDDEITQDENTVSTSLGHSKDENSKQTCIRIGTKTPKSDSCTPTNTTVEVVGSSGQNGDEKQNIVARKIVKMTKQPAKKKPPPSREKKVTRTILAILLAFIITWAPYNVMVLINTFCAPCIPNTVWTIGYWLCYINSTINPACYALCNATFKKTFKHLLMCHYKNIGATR
Method: as §1, §2, §3, §4, §5

M4 muscarinic receptor = molecular target: T4, M4 muscarinic receptor (Homo sapiens, UniProt P08173); assay: Functional mobilization of intracellular calcium (FLIPR) in CHO cells expressing M4; details: for pEC50: CHO cells expressing M4, FLIPR calcium; for Emax: CHO; for M4 Activity: CHO cells expressing M4, FLIPR calcium assay
T4 construct: expressed in transfected cells; host or cells: CHO (M4-CHO)
T4 sequence (P08173 1-479): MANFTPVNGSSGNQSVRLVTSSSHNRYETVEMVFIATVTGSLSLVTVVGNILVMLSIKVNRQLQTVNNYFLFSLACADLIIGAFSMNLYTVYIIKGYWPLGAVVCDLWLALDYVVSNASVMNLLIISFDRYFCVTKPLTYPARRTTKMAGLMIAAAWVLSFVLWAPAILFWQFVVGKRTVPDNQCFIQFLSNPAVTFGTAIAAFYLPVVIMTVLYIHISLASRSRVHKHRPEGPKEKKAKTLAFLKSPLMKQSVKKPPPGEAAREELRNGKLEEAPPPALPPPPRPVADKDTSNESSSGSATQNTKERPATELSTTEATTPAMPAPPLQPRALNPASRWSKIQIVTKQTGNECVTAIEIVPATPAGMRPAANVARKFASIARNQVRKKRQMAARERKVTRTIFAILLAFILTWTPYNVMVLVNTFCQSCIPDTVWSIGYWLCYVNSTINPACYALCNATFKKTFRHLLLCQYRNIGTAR
Method: as §1, §2, §3, §4, §5

[1] = 100% = maximum response obtained with the Carbachol control, read-out: M1 Efficacy
[2] = 100% = maximum response obtained with the Carbachol control, read-out: M3 Efficacy
[3] = 100% = maximum response obtained with the Carbachol control, read-out: M2 Efficacy
[4] = 100% = maximum response obtained with the Carbachol control, read-out: M4 Efficacy
[5] = 100% efficacy = maximum response obtained with the Carbachol control

T2 sequence (P20309 whole entry): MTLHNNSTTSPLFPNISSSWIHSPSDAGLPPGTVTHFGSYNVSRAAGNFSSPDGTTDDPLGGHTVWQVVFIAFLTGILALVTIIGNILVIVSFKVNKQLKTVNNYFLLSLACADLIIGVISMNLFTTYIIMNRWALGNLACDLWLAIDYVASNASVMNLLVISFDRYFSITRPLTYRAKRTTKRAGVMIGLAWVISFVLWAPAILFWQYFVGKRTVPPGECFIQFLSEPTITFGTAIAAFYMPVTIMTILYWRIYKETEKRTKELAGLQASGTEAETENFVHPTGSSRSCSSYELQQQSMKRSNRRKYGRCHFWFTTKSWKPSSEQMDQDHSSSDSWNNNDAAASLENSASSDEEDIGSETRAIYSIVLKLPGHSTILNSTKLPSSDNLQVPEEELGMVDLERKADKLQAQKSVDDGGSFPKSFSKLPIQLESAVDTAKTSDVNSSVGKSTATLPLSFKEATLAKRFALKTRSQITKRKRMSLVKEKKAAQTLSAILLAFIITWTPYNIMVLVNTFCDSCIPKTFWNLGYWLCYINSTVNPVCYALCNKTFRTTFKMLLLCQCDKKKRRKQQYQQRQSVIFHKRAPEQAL

Structure (SMILES) | pEC50 (M1 muscarinic receptor) | Emax (M1 muscarinic receptor; [1]) | pEC50 (M3 muscarinic receptor) | Emax (M3 muscarinic receptor; [2]) | pEC50 (M2 muscarinic receptor) | Emax (M2 muscarinic receptor; [3]) | pEC50 (M4 muscarinic receptor) | Emax (M4 muscarinic receptor; [4]) | M1 Activity (M1 muscarinic receptor) | Emax (M1 muscarinic receptor; [5]) | M3 Activity (M3 muscarinic receptor; CHO cells expressing M3, FLIPR calcium assay) | Emax (M3 muscarinic receptor; [5]) | M2 Activity (M2 muscarinic receptor) | Emax (M2 muscarinic receptor; [5]) | M4 Activity (M4 muscarinic receptor) | Emax (M4 muscarinic receptor; [5])
CCC(CC)N1CCC2(CC[C@H](NC(C)=O)c3ccccc32)CC1 [Compound No. 61, (S)N-(1′-(pentan-3-yl)-3,4-dihydro-2H-spiro[naphthalene-1,4′-piperidine]-4-yl)acetamide] | < 5.30 | 25 to 100% | < 5.30 | < 25% | < 5.30 | < 25% | < 5.30 | 25 to 100% | – | – | – | – | – | – | – | –
CC(=O)N[C@H]1CCC2(CCN(CC(=O)C(C)(C)C)CC2)c2ccccc21 [Compound No. 130, (S)-N-(1′-(3,3-dimethyl-2-oxobutyl)-3,4-dihydro-2H-spiro[naphthalene-1,4′-piperidine]-4-yl)acetamide] | 5.30 to 5.70 | 25 to 100% | < 5.30 | < 25% | < 5.30 | < 25% | > 5.70 | 25 to 100% | – | – | – | – | – | – | – | –
CC(=O)N[C@H]1CCC2(CCN(CCC(C)(C)C)CC2)c2ccccc21 [Compound No. 190, (S)-N-(1′-(3,3-dimethylbutyl)-3,4-dihydro-2H -spiro[naphthalene-1,4′-piperidine]-4-yl)acetamide] | – | – | – | – | – | – | – | – | +++ (activity was measured to be less than 2.0 μM) | 25 to 100% | + (activity was measured to be greater than 5.0 μM) | < 25% | +++ (activity was measured to be less than 2.0 μM) | 25 to 100% | +++ (activity was measured to be less than 2.0 μM) | 25 to 100%
CC(C)(C)CCN1CCC2(CC[C@H](NS(C)(=O)=O)c3ccccc32)CC1 [compound 1] | > 5.70 | 25 to 100% | < 5.30 | < 25% | 5.30 to 5.70 | < 25% | > 5.70 | 25 to 100% | – | – | – | – | – | – | – | –
Cc1cc(C(=O)N[C@H]2CCC3(CCN(CCC(C)(C)C)CC3)c3cc(F)ccc32)nn1C [compound 2] | > 5.70 | 25 to 100% | < 5.30 | < 25% | > 5.70 | 25 to 100% | > 5.70 | 25 to 100% | – | – | – | – | – | – | – | –
CC(C)(C)CCN1CCC2(CC[C@@H](NC(=O)C3CC3)c3ccccc32)CC1 [compound 3] | < 5.30 | < 25% | < 5.30 | < 25% | < 5.30 | < 25% | > 5.70 | 25 to 100% | – | – | – | – | – | – | – | –
CCCCN1CCC2(CC[C@H](NC(C)=O)c3ccccc32)CC1 [compound 4] | 5.30 to 5.70 | 25 to 100% | < 5.30 | < 25% | < 5.30 | < 25% | 5.30 to 5.70 | 25 to 100% | – | – | – | – | – | – | – | –
CCC(=O)N1CCCCC1C(=O)N[C@@H]1CCC2(CCN(CCC(C)(C)C)CC2)c2ccccc21 (stereo partly shown) [compound 5] | 5.30 to 5.70 | < 25% | < 5.30 | < 25% | 5.30 to 5.70 | < 25% | > 5.70 | 25 to 100% | – | – | – | – | – | – | – | –
CC(C)(C)CCN1CCC2(CC[C@@H](N3CCCCC3=O)c3ccc(F)cc32)CC1 [compound 6] | < 5.30 | < 25% | < 5.30 | < 25% | < 5.30 | < 25% | > 5.70 | 25 to 100% | – | – | – | – | – | – | – | –
CCN(C(=O)CC1CCCC1=O)[C@H]1CCC2(CCN(CCC(C)(C)C)CC2)c2ccccc21 (stereo partly shown) [compound 7] | 5.30 to 5.70 | 25 to 100% | < 5.30 | < 25% | < 5.30 | < 25% | > 5.70 | 25 to 100% | – | – | – | – | – | – | – | –
CC(=O)NCCC(=O)N[C@@H]1CCC2(CCN(CCC(C)(C)C)CC2)c2ccccc21 [compound 8] | > 5.70 | 25 to 100% | < 5.30 | < 25% | 5.30 to 5.70 | < 25% | > 5.70 | 25 to 100% | – | – | – | – | – | – | – | –
C[C@H](N[C@H]1CC2(CCN(C(=O)OC(C)(C)C)CC2)c2ccccc21)c1ccccc1 [compound 275] | – | – | – | – | – | – | – | – | + (activity was measured to be greater than 5.0 μM) | < 25% | – | – | + (activity was measured to be greater than 5.0 μM) | < 25% | + (activity was measured to be greater than 5.0 μM) | < 25%
